According to the supplement of paper PMC10307832:

What was measured:
Experiment in all cases: relative viability (nuclei count vs DMSO), 5 days (fraction); higher = more cells survive
Tozasertib + Bortezomib = compound: Cc1cc(Nc2cc(N3CCN(C)CC3)nc(Sc3ccc(NC(=O)C4CC4)cc3)n2)n[nH]1 [Tozasertib] + CC(C)C[C@H](NC(=O)[C@H](Cc1ccccc1)NC(=O)c1cnccn1)B(O)O [Bortezomib] (partner 0.002 µM)
In short: (§1)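 Lung cancer cell lines were seeded in 1536-well plates and dosed by pin tool the next day, with either a single drug or a fixed anchor-drug dose combined with five library-drug doses (not always all listed) spaced in √10 steps. Five days later, one step fixed the cells and stained their nuclei (final 0.05% Triton X-100, 1% formaldehyde, 1 ug/ml Hoechst), and nuclei were counted on 4× images. Relative viability is the nuclei count in treated wells divided by the count in vehicle wells, and each value is the median of duplicate plates.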

Tozasertib + Foretinib = compound: Cc1cc(Nc2cc(N3CCN(C)CC3)nc(Sc3ccc(NC(=O)C4CC4)cc3)n2)n[nH]1 [Tozasertib] + COc1cc2c(Oc3ccc(NC(=O)C4(C(=O)Nc5ccc(F)cc5)CC4)cc3F)ccnc2cc1OCCCN1CCOCC1 [Foretinib] (partner 0.25 µM)
In short: as §1

Tozasertib + Lapatinib = compound: Cc1cc(Nc2cc(N3CCN(C)CC3)nc(Sc3ccc(NC(=O)C4CC4)cc3)n2)n[nH]1 [Tozasertib] + CS(=O)(=O)CCNCc1ccc(-c2ccc3ncnc(Nc4ccc(OCc5cccc(F)c5)c(Cl)c4)c3c2)o1 [Lapatinib] (partner 2 µM)
In short: as §1

Tozasertib + Crizotinib = compound: Cc1cc(Nc2cc(N3CCN(C)CC3)nc(Sc3ccc(NC(=O)C4CC4)cc3)n2)n[nH]1 [Tozasertib] + C[C@@H](Oc1cc(-c2cnn(C3CCNCC3)c2)cnc1N)c1c(Cl)ccc(F)c1Cl [Crizotinib] (partner 1 µM)
In short: as §1

Tozasertib + Pemetrexed = compound: Cc1cc(Nc2cc(N3CCN(C)CC3)nc(Sc3ccc(NC(=O)C4CC4)cc3)n2)n[nH]1 [Tozasertib] + Nc1nc2[nH]cc(CCc3ccc(C(=O)N[C@@H](CCC(=O)O)C(=O)O)cc3)c2c(=O)[nH]1 [Pemetrexed] (partner 0.2 µM)
In short: as §1

Cell Line	relative viability (Tozasertib + Bortezomib; first compound 0.004 µM)	relative viability (Tozasertib + Bortezomib; first compound 0.01265 µM)	relative viability (Tozasertib + Bortezomib; first compound 0.04 µM)	relative viability (Tozasertib + Foretinib; first compound 0.004 µM)	relative viability (Tozasertib + Foretinib; first compound 0.01265 µM)	relative viability (Tozasertib + Foretinib; first compound 0.04 µM)	relative viability (Tozasertib + Foretinib; first compound 0.1265 µM)	relative viability (Tozasertib + Lapatinib; first compound 0.004 µM)	relative viability (Tozasertib + Lapatinib; first compound 0.01265 µM)	relative viability (Tozasertib + Lapatinib; first compound 0.04 µM)	relative viability (Tozasertib + Lapatinib; first compound 0.1265 µM)	relative viability (Tozasertib + Crizotinib; first compound 0.004 µM)	relative viability (Tozasertib + Crizotinib; first compound 0.01265 µM)	relative viability (Tozasertib + Crizotinib; first compound 0.04 µM)	relative viability (Tozasertib + Crizotinib; first compound 0.1265 µM)	relative viability (Tozasertib + Pemetrexed; first compound 0.004 µM)	relative viability (Tozasertib + Pemetrexed; first compound 0.01265 µM)	relative viability (Tozasertib + Pemetrexed; first compound 0.04 µM)	relative viability (Tozasertib + Pemetrexed; first compound 0.1265 µM)	relative viability (Tozasertib + Bortezomib; first compound 0.1265 µM)
201T	1.1	1.06	1.07	1.09	1.04	1.28	1.09	1	0.981	1.05	0.884	1.02	1.05	1.06	1.01	0.33	0.283	0.377	0.362	–
A-427	0.983	0.942	1.02	1.03	0.935	1	0.594	1.09	–	1.04	0.824	0.882	0.985	0.788	0.469	1	–	0.973	0.75	0.812
ABC-1	0.278	0.282	0.3	0.988	1.27	0.838	0.381	1.26	1.04	1.13	1.24	1.21	0.992	0.565	0.249	–	–	–	–	0.231
BEN	1.01	0.79	0.925	1.02	0.463	0.678	0.493	0.73	0.886	0.696	0.577	0.91	0.921	0.907	0.727	0.847	0.72	0.923	0.487	0.571
CAL-12T	1.2	0.785	0.962	1.19	1.04	1.11	1.11	0.651	0.596	0.626	0.414	0.823	0.635	0.454	0.325	1.3	1.14	1.25	1.01	0.362
COR-L23	0.986	0.889	0.888	0.998	0.847	0.783	0.523	1.02	0.863	0.721	0.247	0.695	0.667	0.453	0.412	0.206	0.206	0.187	0.179	0.864
COR-L 105	0.879	0.815	0.943	1.03	0.993	1	0.803	0.358	0.365	0.335	0.262	–	0.765	0.771	0.458	1.05	1.14	1.23	1.15	0.291
ChaGo-K-1	1.17	0.953	1.14	0.939	0.874	0.813	0.249	–	–	–	–	1.19	1.12	0.957	0.331	0.255	0.268	0.254	0.264	0.31
EKVX	1.19	0.993	–	0.74	0.76	0.838	0.786	0.189	0.167	0.227	0.185	0.766	–	0.932	0.802	0.371	0.351	0.382	0.351	1.05
EMC-BAC-2	1.09	1.05	0.96	1.1	0.935	1.02	0.642	0.851	–	0.908	0.567	0.803	0.704	0.461	0.23	0.464	0.407	0.467	0.428	–
EPLC-272H	0.774	0.804	0.775	0.643	0.595	0.604	0.496	0.958	–	0.891	–	0.851	1.03	0.823	–	0.341	0.381	0.258	0.206	–
H3255	0.789	0.7	0.823	1.43	0.698	0.868	0.706	0.256	0.229	0.236	0.228	0.801	0.765	1.01	0.769	0.519	0.579	0.567	0.552	0.549
HARA	1.18	1	1.01	–	0.824	1.03	0.145	–	0.695	1.02	0.246	–	0.984	0.776	0.14	0.24	0.27	0.274	0.203	0.664
HCC-15	0.999	–	–	1.1	0.99	1.1	0.764	0.992	0.852	0.92	0.751	0.872	0.85	0.738	0.773	0.232	0.234	0.228	0.228	0.851
